The structures appear in SMILES notation.

In the test the target is T1, ERAP1 (Homo sapiens, UniProt Q9NZ08).
T1 construct: Purified ERAP1(37-941)-10His (ERAP1)
T1 sequence (Q9NZ08 37-941): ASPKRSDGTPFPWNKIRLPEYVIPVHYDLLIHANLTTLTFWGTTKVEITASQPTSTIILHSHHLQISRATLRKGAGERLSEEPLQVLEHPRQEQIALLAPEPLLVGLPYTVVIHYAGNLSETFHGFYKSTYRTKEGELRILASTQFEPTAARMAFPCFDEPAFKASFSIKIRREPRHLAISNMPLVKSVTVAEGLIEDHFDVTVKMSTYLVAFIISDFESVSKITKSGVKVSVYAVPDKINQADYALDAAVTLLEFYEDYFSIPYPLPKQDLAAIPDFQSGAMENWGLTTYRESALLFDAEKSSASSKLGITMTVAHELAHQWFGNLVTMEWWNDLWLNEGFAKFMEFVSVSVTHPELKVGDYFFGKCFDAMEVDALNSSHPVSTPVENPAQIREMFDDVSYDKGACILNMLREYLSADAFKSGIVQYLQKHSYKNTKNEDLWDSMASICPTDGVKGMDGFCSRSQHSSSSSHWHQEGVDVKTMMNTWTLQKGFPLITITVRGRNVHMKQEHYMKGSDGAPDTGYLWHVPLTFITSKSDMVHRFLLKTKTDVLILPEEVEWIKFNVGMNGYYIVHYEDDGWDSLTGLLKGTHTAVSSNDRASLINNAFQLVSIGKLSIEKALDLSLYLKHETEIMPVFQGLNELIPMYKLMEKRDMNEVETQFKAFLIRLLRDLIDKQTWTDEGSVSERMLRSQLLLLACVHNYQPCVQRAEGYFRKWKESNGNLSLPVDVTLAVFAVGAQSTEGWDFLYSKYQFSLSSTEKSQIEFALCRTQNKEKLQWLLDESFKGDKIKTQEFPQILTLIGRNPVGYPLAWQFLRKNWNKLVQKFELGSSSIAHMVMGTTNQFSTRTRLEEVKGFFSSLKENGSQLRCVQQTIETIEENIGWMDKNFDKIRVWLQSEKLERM
Put plainly: ERAP1 mediated hydrolysis of an amide substrate measured in a biochemical system (10-mer inhibition assay). The following applies: purified ERAP1(37-941)-10His; 10-mer substrate; 23° C. for 1 h; excitation 279 nm, emission 355 nm; read-out: IC50 vs Decapeptide WRVYEKC(Dnp)ALK-acid (where Dnp is Dinitrophenyl maleimide) (10-mer). The method in brief:
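Purified ERAP1(37-941)-10His in 25 mM Bis-tris propane, 0.05% HPMC, pH 7.75, with compound, then 100 μM 10-mer WRVYEKC(Dnp)ALK or 240 μM L-AMC added (stock concentrations before 1:1 mixing), 1 h at 23 °C. Fluorescence read at ex 279/em 355 nm (10-mer) or ex 365/em 442 nm (L-AMC); IC50 from 4-parameter fit.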
For `CO[C@H]1C[C@@H](COc2cc(Cl)c(C#N)cc2NS(=O)(=O)c2cc(C(=O)O)ccc2C2CC2)C1` [Example 47, 3-(N-(4-chloro-5-cyano-2-((cis-3-methoxycyclobutyl)methoxy)phenyl)sulfamoyl)-4-cyclopropylbenzoic acid], the IC50 was < 1 nM.

For `N#Cc1cc(NS(=O)(=O)c2cc(C(=O)O)ccc2C2CC2)c(O[C@H]2C[C@H](O)C2)cc1Cl` [Example 96, 3-(N-(4-chloro-5-cyano-2-(trans-3-hydroxycyclobutoxy)phenyl)sulfamoyl)-4-cyclopropylbenzoic acid], the IC50 is < 1 nM. Take `COC1CCC1Oc1cc(Cl)c(C#N)cc1NS(=O)(=O)c1cc(C(=O)O)ccc1C1CC1` (single isomer, unassigned) [Example 145, 3-(N-(4-chloro-5-cyano-2-(cis-2-methoxycyclobutoxy)phenyl)sulfamoyl)-4-cyclopropylbenzoic acid]: the IC50 lay in the range of 1 to 5 nM. In the case of `CC1(C)CCC1Oc1cc(Cl)c(C#N)cc1NS(=O)(=O)c1cc(C(=O)O)ccc1C1CC1` (single isomer, unassigned) [Example 94, 3-(N-(4-chloro-5-cyano-2-(2,2-dimethylcyclobutoxy)phenyl)-sulfamoyl)-4-cyclopropylbenzoic acid], the IC50 was < 1 nM. In the case of `N#Cc1cc(NS(=O)(=O)c2cc(C(=O)O)ccc2C2CC2)c(OCC2(F)CCC2)cc1Cl` [Example 58, 3-(N-(4-chloro-5-cyano-2-((1-fluorocyclobutyl)methoxy)phenyl)sulfamoyl)-4-cyclopropylbenzoic acid], the IC50 was < 1 nM.

Turning to `O=C(O)c1ccc(C2CC2)c(S(=O)(=O)Nc2cc(-c3ccns3)c(Cl)cc2OC2CCCC2)c1` [Example 22, 3-(N-(4-chloro-2-(cyclopentyloxy)−5-(isothiazol-5-yl)phenyl)sulfamoyl)-4-cyclopropylbenzoic acid], the IC50 is < 1 nM. On to `C#CC1CCCC1Oc1cc(Cl)c(C#N)cc1NS(=O)(=O)c1cc(C(=O)O)ccc1C1CC1` (single isomer, unassigned) [Example 116, 3-(N-(4-chloro-5-cyano-2-((trans-2-ethynylcyclopentyl)oxy)phenyl)sulfamoyl)-4-cyclopropylbenzoic acid], for which the IC50 is > 5 nM. As for `C[C@@H](Oc1cc(Cl)c(C#N)cc1NS(=O)(=O)c1cc(C(=O)O)ccc1C1CC1)C1CCC1` [Example 78, (R)-3-(N-(4-chloro-5-cyano-2-(1-cyclobutylethoxy)phenyl)sulfamoyl)-4-cyclopropylbenzoic acid], the IC50 is < 1 nM. Consider `N#Cc1cc(NS(=O)(=O)c2cc(C(=O)O)ccc2C2CC2)c(O[C@@H]2CCOC2)cc1Cl` [Example 48, (R)-3-(N-(4-chloro-5-cyano-2-((tetrahydrofuran-3-yl)oxy)phenyl)sulfamoyl)-4-cyclopropylbenzoic acid], for which the 50% inhibitory concentration (IC50) was < 1 nM. Turning to `CO[C@H]1C[C@H](COc2cc(Cl)c(C#N)cc2NS(=O)(=O)c2cc(C(=O)O)ccc2C2CC2)C1` [Example 46, 3-(N-(4-chloro-5-cyano-2-((trans-3-methoxycyclobutyl)methoxy)phenyl)sulfamoyl)-4-cyclopropylbenzoic acid], the IC50 was 1 to 5 nM. Regarding `CCc1ccc(C(=O)O)cc1S(=O)(=O)Nc1cc(C(F)(F)F)ccc1OC1CCCC1` [Example 5, 3-(N-(2-(cyclopentyloxy)−5-(trifluoromethyl)phenyl)sulfamoyl)-4-ethylbenzoic acid], the IC50 is > 5 nM. For `COC1CCC1Oc1cc(Cl)c(C#N)cc1NS(=O)(=O)c1cc(C(=O)O)ccc1C1CC1` (single isomer, unassigned) [Example 139, 3-(N-(4-chloro-5-cyano-2-(trans-2-methoxycyclobutoxy)phenyl)sulfamoyl)-4-cyclopropylbenzoic acid], the IC50 is > 5 nM. Turning to `N#Cc1cc(NS(=O)(=O)c2cc(C(=O)O)ccc2C2CC2)c(OC2CCC23CCC3)cc1Cl` (single isomer, unassigned) [Example 92, 3-(N-(4-chloro-5-cyano-2-(spiro[3.3]heptan-1-yloxy)phenyl)sulfamoyl)-4-cyclopropylbenzoic acid], the IC50 is < 1 nM. Next, `N#Cc1cc(Cl)c(OC2CCCC2)c(NS(=O)(=O)c2cc(C(=O)O)ccc2C2CC2)c1` [Example 19, 3-(N-(3-chloro-5-cyano-2-(cyclopentyloxy)phenyl)sulfamoyl)-4-cyclopropylbenzoic acid]: 1 to 5 nM. Regarding `O=C(O)c1ccc(C2CC2)c(S(=O)(=O)Nc2cc(C(F)(F)F)ccc2OC2CCCC2)c1` [Example 4, 3-(N-(2-(cyclopentyloxy)^−5-(trifluoromethyl)phenyl)sulfamoyl)-4-cyclopropylbenzoic acid], the IC50 was in the range of 1 to 5 nM.

For the compound `C#CC1CCCC1Oc1cc(Cl)c(C#N)cc1NS(=O)(=O)c1cc(C(=O)O)ccc1C1CC1` (single isomer, unassigned) [Example 127, 3-(N-(4-chloro-5-cyano-2-((cis-2-ethynylcyclopentyl)oxy)phenyl)sulfamoyl)-4-cyclopropylbenzoic acid], the IC50 is > 5 nM. For `Cc1oncc1-c1cc(NS(=O)(=O)c2cc(C(=O)O)ccc2C2CC2)c(OC2CCCC2)cc1Cl` [Example 25, 3-(N-(4-chloro-2-(cyclopentyloxy)−5-(5-methylisoxazol-4-yl)phenyl)sulfamoyl)-4-cyclopropylbenzoic acid], the IC50 was < 1 nM.

For the compound `CC1(C)CC(C)(C)C1Oc1cc(Cl)c(C#N)cc1NS(=O)(=O)c1cc(C(=O)O)ccc1C1CC1` [Example 101, 3-(N-(4-chloro-5-cyano-2-(2,2,4,4-tetramethylcyclo-butoxy)phenyl)sulfamoyl)-4-cyclopropylbenzoic acid], the IC50 is > 5 nM. As to `N#Cc1cc(NS(=O)(=O)c2cc(C(=O)O)ccc2C2CC2)c(OCC2CCCC2)cc1Cl` [Example 44, 3-(N-(4-chloro-5-cyano-2-(cyclopentylmethoxy)phenyl)sulfamoyl)-4-cyclopropylbenzoic acid], the IC50 is < 1 nM. As for `N#Cc1cc(NS(=O)(=O)c2cc(C(=O)O)c(F)cc2C2CC2)c(OC2CCCC2)cc1Cl` [Example 16, 5-(N-(4-chloro-5-cyano-2-(cyclopentyloxy)phenyl)sulfamoyl)-4-cyclopropyl-2-fluorobenzoic acid], the IC50 is < 1 nM.

As for `CC1CC(Oc2cc(Cl)c(C#N)cc2NS(=O)(=O)c2cc(C(=O)O)ccc2C2CC2)C1` (single isomer, unassigned) [Example 114, 3-(N-(4-chloro-5-cyano-2-(3-methylcyclobutoxy)phenyl)sulfamoyl)-4-cyclopropylbenzoic acid], the IC50 is < 1 nM. Take `N#Cc1cc(NS(=O)(=O)c2cc(C(=O)O)ccc2C2CC2)c(O[C@@H]2C[C@@H]3C[C@@H]3C2)cc1Cl` [Example 41, Cis-3-(N-(2-(bicyclo[3.1.0]hexan-3-yloxy)− 4-chloro-5-cyanophenyl)sulfamoyl)-4-cyclopropylbenzoic acid]: the IC50 is < 1 nM. Take `N#Cc1cc(NS(=O)(=O)c2cc(C(=O)O)ccc2C2CC2)c(OC2CCC23COC3)cc1Cl` (stereo not shown) [Example 29, 3-(N-(2-((2-oxaspiro[3.3]heptan-5-yl)oxy)-4-chloro-5-cyanophenyl)sulfamoyl)-4-cyclopropylbenzoic acid]: the IC50 is < 1 nM. For the compound `N#Cc1cc(NS(=O)(=O)c2cc(C(=O)O)ccc2C2CC2)c(OC2CCCC2)cc1Cl` [Example 1, 3-(N-(4-chloro-5-cyano-2-(cyclopentyloxy)phenyl)sulfamoyl)-4-cyclopropylbenzoic acid], the half-inhibitory concentration (IC50) was < 1 nM. Next, `Cc1oncc1-c1ccc(OC2CCCC2)c(NS(=O)(=O)c2cc(C(=O)O)ccc2C2CC2)c1` [Example 23, 3-(N-(2-(cyclopentyloxy)-5-(5-methylisoxazol-4-yl)phenyl)sulfamoyl)-4-cyclopropylbenzoic acid]: < 1 nM; `Cc1oncc1-c1cc(NS(=O)(=O)c2cc(C(=O)O)ccc2C2CC2)c(OC2CCC2)cc1Cl` [Example 60, 3-(N-(4-chloro-2-cyclobutoxy-5-(5-methylisoxazol-4-yl)phenyl)sulfamoyl)-4-cyclopropylbenzoic acid]: < 1 nM. In the case of `COC1CCC1Oc1cc(Cl)c(C#N)cc1NS(=O)(=O)c1cc(C(=O)O)ccc1C1CC1` (racemic) [Example 137, 3-(N-(4-chloro-5-cyano-2-(cis-2-methoxycyclobutoxy)phenyl)sulfamoyl)-4-cyclopropylbenzoic acid], the IC50 was < 1 nM. With `COC1CCC(Oc2cc(Cl)c(C#N)cc2NS(=O)(=O)c2cc(C(=O)O)ccc2C2CC2)C1` (mixture of isomers) [Example 124, 3-(N-(4-chloro-5-cyano-2-((3-methoxycyclopentyl)oxy)phenyl)sulfa-moyl)-4-cyclopropylbenzoic acid], the half-inhibitory concentration (IC50) was < 1 nM. For `N#Cc1cc(NS(=O)(=O)c2cc(C(=O)O)ccc2C2CC2)c(OC2CCC23CCC3)cc1Cl` (single isomer, unassigned) [Example 91, 3-(N-(4-chloro-5-cyano-2-(spiro[3.3]heptan-1-yloxy)phenyl)sulfamoyl)-4-cyclopropylbenzoic acid], the IC50 lay within 1 to 5 nM. `COC1CCC1Oc1cc(Cl)c(C#N)cc1NS(=O)(=O)c1cc(C(=O)O)ccc1C1CC1` (single isomer, unassigned) [Example 144, 3-(N-(4-chloro-5-cyano-2-(cis-2-methoxycyclobutoxy)phenyl)sulfamoyl)-4-cyclopropylbenzoic acid]: the IC50 is < 1 nM.

As to `N#Cc1cc(NS(=O)(=O)c2cc(C(=O)O)ccc2C2CC2)c(OC2CCC(F)(F)C2)cc1Cl` (stereo not shown) [Example 134, 3-(N-(4-chloro-5-cyano-2-((3,3-difluorocyclopentyl)oxy)phenyl)sulfa-moyl)-4-cyclopropylbenzoic acid], the IC50 is < 1 nM.

The values above are taken from patent publication US12692223B2, “Phenyl-sulfamoyl-benzoic acid derivatives as ERAP1-modulators” (GREY WOLF THERAPEUTICS LIMITED, priority 2021, dated 2026).
